Broadly, the IC50 is the midpoint of a concentration-inhibition curve. By inhibition in vivo is commonly meant the percentage by which the read-out fell short of the control.

This is an account of results in ChEMBL document CHEMBL5537118, “Synthesis of cinnamoyl tethered indoline derivatives with anti-inflammatory and antioxidant activities” (Eur J Med Chem, 2024).

Molecules are shown by their SMILES. Activity calls are given as the source filed them. The rule behind the calls is not given here.

The test system of data set [1] is RAW264.7. Nature of the data set: Antiinflammatory activity in LPS-induced mouse RAW264.7 cells assessed as inhibition of NO production at 2 to 10 uM pretreated for 1 hr followed by LPS addition and measured after 24 hrs by griess reagent based assay. It is filed as functional, cell-based. The settings on record: dose 2-10 µM, time 25.0 hrs. Background: The Griess reaction detects nitrite, a stable product of nitric oxide.

A short description of data set [2]: Cytotoxicity against mouse RAW264.7 cells assessed as cell viability at 2 to 10 uM measured after 24 hrs. It counts as toxicity, cell-based. The conditions noted are these: dose 2-10 µM, read-out: Activity.
Data set [3] relates to RAW264.7. Kind of data set: Antioxidant activity in H2O2-stimulated mouse RAW264.7 cells assessed as protection against cell damage at 2 to 5 uM pretreated for 30 mins followed by H2O2 stimulation and measured after 4 hrs by MTT assay. The settings on record: dose 2-5 µM, time 4.5 hrs. It counts as functional, cell-based.
Data set [4] relates to RAW264.7. Nature of the data set: Antiinflammatory activity in LPS-induced mouse RAW264.7 cells assessed as inhibition of NO production pretreated for 1 hr followed by LPS addition and measured after 24 hrs by griess reagent based assay. It counts as functional, cell-based.
For data set [5], the system named is Mus musculus. Kind of data set: Antiinflammatory activity in carrageenan-induced Kunming mouse model of paw edema assessed as paw volume at 30 mg/kg, IG pretreated for 1 hr followed by carrageenan administration and measured after 3 hrs by digital plethysmometer (reference value: 0.365 +/- 0.044 mL). It is filed as functional. The settings on record: time 4 hrs.

In data set [6] the test system is Mus musculus. Nature of the data set: Antiinflammatory activity in carrageenan-induced Kunming mouse model of paw edema assessed as edema inhibition at 30 mg/kg, ip pretreated for 1 hr followed by carrageenan administration and measured after 5 hrs relative to control. It is filed as functional. The conditions noted are these: time 6 hrs.
Data set [7] has as its system Mus musculus. Kind of data set: Antiinflammatory activity in carrageenan-induced Kunming mouse model of paw edema assessed as paw volume at 30 mg/kg, IG pretreated for 1 hr followed by carrageenan administration and measured after 1 hr by digital plethysmometer (reference value: 0.407 +/- 0.023 mL). It is filed as functional. The settings on record: time 2 hrs.
In data set [8] the test system is Mus musculus. Nature of the data set: Antiinflammatory activity in carrageenan-induced Kunming mouse model of paw edema assessed as edema inhibition at 30 mg/kg, ip pretreated for 1 hr followed by carrageenan administration and measured after 3 hrs relative to control. It counts as functional. The settings on record: time 4 hrs.
Data set [9] has as its system Mus musculus. Nature of the data set: Antiinflammatory activity in carrageenan-induced Kunming mouse model of paw edema assessed as paw volume at 30 mg/kg, IG pretreated for 1 hr followed by carrageenan administration and measured after 5 hrs by digital plethysmometer (reference value: 0.353 +/- 0.024 mL). It is filed as functional. The settings on record: time 6 hrs.

The subject of data set [10] is Mus musculus. Kind of data set: Antiinflammatory activity in carrageenan-induced Kunming mouse model of paw edema assessed as edema inhibition at 30 mg/kg, IG pretreated for 1 hr followed by carrageenan administration and measured after 3 hrs relative to control. The conditions noted are these: po, time 4 hrs. It is filed as functional.
Data set [11] deals with Mus musculus. Nature of the data set: Antiinflammatory activity in carrageenan-induced Kunming mouse model of paw edema assessed as edema inhibition at 30 mg/kg, IG pretreated for 1 hr followed by carrageenan administration and measured after 1 hr relative to control. It counts as functional. The settings on record: po, time 2 hrs.
Data set [12] concerns Mus musculus. Nature of the data set: Antiinflammatory activity in carrageenan-induced Kunming mouse model of paw edema assessed as edema inhibition at 30 mg/kg, ip pretreated for 1 hr followed by carrageenan administration and measured after 1 hr relative to control. It is filed as functional. The settings on record: time 2 hrs.
Data set [13] concerns Mus musculus. Kind of data set: Antiinflammatory activity in carrageenan-induced Kunming mouse model of paw edema assessed as paw volume at 30 mg/kg, ip pretreated for 1 hr followed by carrageenan administration and measured immediately by digital plethysmometer (reference value: 0.116 +/- 0.042 mL). It is filed as functional.
Data set [14] relates to Mus musculus. Kind of data set: Antiinflammatory activity in carrageenan-induced Kunming mouse model of paw edema assessed as paw volume at 30 mg/kg, IG pretreated for 1 hr followed by carrageenan administration and measured immediately by digital plethysmometer (reference value: 0.144 +/- 0.026 mL). It counts as functional.
Data set [15] deals with Mus musculus. Nature of the data set: Antiinflammatory activity in carrageenan-induced Kunming mouse model of paw edema assessed as paw volume at 30 mg/kg, ip pretreated for 1 hr followed by carrageenan administration and measured after 1 hr by digital plethysmometer (reference value: 0.395 +/- 0.017 mL). It counts as functional. The conditions noted are these: time 2 hrs.

Data set [16] has as its system Mus musculus. Kind of data set: Antiinflammatory activity in carrageenan-induced Kunming mouse model of paw edema assessed as paw volume at 30 mg/kg, ip pretreated for 1 hr followed by carrageenan administration and measured after 5 hrs by digital plethysmometer (reference value: 0.362 +/- 0.016 mL). The conditions noted are these: time 6 hrs. It counts as functional.

Data set [17] concerns Mus musculus. Kind of data set: Antiinflammatory activity in carrageenan-induced Kunming mouse model of paw edema assessed as edema inhibition at 30 mg/kg, IG pretreated for 1 hr followed by carrageenan administration and measured after 5 hrs relative to control. It is filed as functional. The conditions noted are these: po, time 6 hrs.
The subject of data set [18] is Mus musculus. Kind of data set: Antiinflammatory activity in carrageenan-induced Kunming mouse model of paw edema assessed as paw volume at 30 mg/kg, ip pretreated for 1 hr followed by carrageenan administration and measured after 3 hrs by digital plethysmometer (reference value: 0.377 +/- 0.018 mL). It is filed as functional. The conditions noted are these: time 4 hrs.

For `O=C(/C=C/c1cccc(O)c1)NCCCN1CCc2cc(Cl)ccc21`, the outcome in data set [1] was inactive. For the same molecule, in data set [2], the viability at 24 h, 10 µM was over 85%.
As to `CC(C)(C)c1cc(/C=C/C(=O)NCCCN2CCc3cc(Cl)ccc32)cc(C(C)(C)C)c1O`, in [2], the viability at 24 h, 10 µM was over 85%.
For `COc1ccc2c(c1)CCN2CCCNC(=O)/C=C/c1cc(C(C)(C)C)c(O)c(C(C)(C)C)c1`, the viability at 24 h, 10 µM in data set [2] is over 85%.
In the case of `COc1ccc2c(c1)CCN2CCCNC(=O)/C=C/c1ccc(O)cc1`, the result in data set [1] and in [3] was Active. Further, the viability at 24 h, 10 µM in [2] is over 85%.
For `COc1cc(/C=C/C(=O)NCCCN2CCc3cc(Cl)ccc32)ccc1O`, in data set [4], the concentration for half-maximal inhibition (IC50) came out at 5 µM. For the same molecule, the viability at 24 h, 10 µM in data set [2] was over 85%.
Take `COc1ccc2c(c1)CCN2CCCNC(=O)/C=C/c1cc(OC)c(OC)c(OC)c1`: the outcome in data set [1] was Active. The IC50 in [4] is 4.43 µM. Also, in data set [2], the viability at 24 h, 10 µM was over 85%. The outcome in data set [3] was inactive.
Take `COc1cc(/C=C/C(=O)NCCCN2CCc3cc(Cl)ccc32)cc(OC)c1OC`: the outcome in data set [1] was Active. The IC50 in [4] came out at 3.54 µM. For the same molecule, in data set [2], the viability at 24 h, 10 µM was over 85%. Besides, the result in [3] was inactive.
As to `O=C(/C=C/c1ccc(O)cc1)NCCCN1CCc2ccccc21`, the outcome in data set [1] and in data set [3] was Active. The viability at 24 h, 10 µM in data set [2] was over 85%.
Regarding `O=C(/C=C/c1ccccc1)NCCCN1CCc2cc(Cl)ccc21`, in data set [2], the viability at 24 h, 10 µM is over 85%.
On the same count and under the same terms, then `COc1cc(/C=C/C(=O)NCCCN2CCc3ccccc32)cc(OC)c1O`, with over 85%.
For the molecule `O=C(/C=C/c1ccc(O)c(O)c1)NCCCN1CCc2ccccc21`, the result in [1] and in data set [3] was Active. Also, the IC50 in data set [4] came out at 1.9 µM. The viability at 24 h, 10 µM in data set [2] is over 85%.
For `COc1ccc2c(c1)CCN2CCCNC(=O)/C=C/c1ccccc1`, the viability at 24 h, 10 µM in [2] is over 85%.
As to `COc1ccc2c(c1)CCN2CCCNC(=O)/C=C/c1ccc(O)c(Cl)c1`, the outcome in [1] and in data set [3] was Active. In addition, the viability at 24 h, 10 µM in data set [2] is over 85%.
As for `COc1cc(/C=C/C(=O)NCCCN2CCc3ccccc32)ccc1O`, the viability at 24 h, 10 µM in data set [2] is over 85%.
Turning to `COc1ccc2c(c1)CCN2CCCNC(=O)/C=C/c1cc(OC)c(O)c(OC)c1`, in [2], the viability at 24 h, 10 µM is over 85%.
With `O=C(/C=C/c1cccc(O)c1)NCCCN1CCc2ccccc21`, the result in data set [1] was inactive. The viability at 24 h, 10 µM in [2] is over 85%.
Consider `O=C(/C=C/c1ccc(O)c(O)c1)OCCc1ccccc1` [CAFFEIC ACID PHENETHYL ESTER], for which the Activity in data set [5] was determined as 0.294 mL; in [7] it was 0.342 mL; in data set [9], 0.257 mL; in [13], 0.128 mL; in [14] it was 0.125 mL; in data set [15] it was 0.29 mL. Besides, the Activity was 0.196 mL in data set [16] and 0.243 mL in data set [18]. Further, the inhibition in vivo at 30 mg/kg in [6] turned out to be 69.5%; in data set [8], 54.9%; in data set [10] it was 29.1%; in data set [11], 23.5%; in [12], 38.6%; in data set [17] it was 44.2%. Besides, the IC50 in data set [4] turned out to be 0.39 µM. For the same molecule, the outcome in data set [3] was Active.
With `COc1cc(/C=C/C(=O)NCCCN2CCc3cc(Cl)ccc32)cc(OC)c1O`, in data set [2], the viability at 24 h, 10 µM is over 85%.
Still for that read-out and setting: the result for `COc1ccc2c(c1)CCN2CCCNC(=O)/C=C/c1ccc(O)c([N+](=O)[O-])c1` reads over 85%.
For `O=C(/C=C/c1ccc(O)cc1)NCCCN1CCc2cc(Cl)ccc21`, the outcome in [1] and in data set [3] was Active. The IC50 in [4] is 4.07 µM. In addition, the viability at 24 h, 10 µM in data set [2] is over 85%.
As to `CC(C)(C)c1cc(/C=C/C(=O)NCCCN2CCc3ccccc32)cc(C(C)(C)C)c1O`, the viability at 24 h, 10 µM in [2] is over 85%.
Still for that read-out and setting: then `O=C(/C=C/c1ccccc1)NCCCN1CCc2ccccc21`, with over 85%.
`O=C(/C=C/c1ccc(O)c(Cl)c1)NCCCN1CCc2cc(Cl)ccc21`: the outcome in data set [1] and in [3] was Active. Further, the IC50 in data set [4] stood at 3.65 µM. Besides, the viability at 24 h, 10 µM in data set [2] was over 85%.
Regarding `CC(=O)Oc1ccc(/C=C/C(=O)NCCCN2CCc3cc(Cl)ccc32)cc1OC(C)=O`, the Activity in data set [5] is 0.258 mL; in data set [7], 0.325 mL; in data set [9], 0.21 mL; in data set [13] it was 0.142 mL; in data set [14], 0.136 mL; in [15], 0.329 mL. Also, the Activity in data set [16] was 0.209 mL; in [18] it was 0.24 mL. Also, the inhibition in vivo at 30 mg/kg in data set [6] stood at 64%; in data set [8], 56.1%; in data set [10], 43.9%; in data set [11] it was 29.6%; in [12], 24.3%; in data set [17], 65.9%.
Take `COc1ccc2c(c1)CCN2CCCNC(=O)/C=C/c1ccc(O)c(O)c1`: the result in data set [1] and in data set [3] was Active. In addition, the IC50 in data set [4] amounted to 2.07 µM. Also, the viability at 24 h, 10 µM in [2] was over 85%.
`COc1ccc2c(c1)CCN2CCCNC(=O)/C=C/c1ccc(O)c(OC)c1`: the viability at 24 h, 10 µM in [2] was over 85%.
For the molecule `O=C(/C=C/c1ccc(O)c([N+](=O)[O-])c1)NCCCN1CCc2ccccc21`, the viability at 24 h, 10 µM in [2] is over 85%.
For the molecule `O=C(/C=C/c1ccc(O)c([N+](=O)[O-])c1)NCCCN1CCc2cc(Cl)ccc21`, the viability at 24 h, 10 µM in data set [2] was over 85%.
`COc1cc(/C=C/C(=O)NCCCN2CCc3ccccc32)cc(OC)c1OC`: the outcome in data set [1] was Active. In [4], the IC50 was found to be 3.9 µM. For the same molecule, the viability at 24 h, 10 µM in data set [2] is over 85%. Further, in data set [3], the outcome was inactive.
As for `O=C(/C=C/c1ccc(O)c(Cl)c1)NCCCN1CCc2ccccc21`, the result in data set [1] and in [3] was Active. In addition, the viability at 24 h, 10 µM in data set [2] was over 85%.
For the molecule `COc1ccc2c(c1)CCN2CCCNC(=O)/C=C/c1cccc(O)c1`, in data set [1], the result was inactive. Further, the viability at 24 h, 10 µM in data set [2] was over 85%.
